# From patent publication US20120130104A1, “CYCLOPROPENES-[…] TO CONTROL RIPENING PROCESSES OF AGRICULTURAL PRODUCTS” (priority 2005, published 2012)
# Test system: tomatoes
# Assay: Inhibitory effects of cyclopropene compounds on tomato ripening
# Assay type: in vivo
# Conditions: for Degree of ripening 0, number of tomatoes, Treated / Degree of ripening 1, number of tomatoes, Treated / Degree of ripening 2, number of tomatoes, Treated / Degree of ripening 3, number of tomatoes, Treated / Degree of ripening 4, number of tomatoes, Treated / Degree of ripening 5, number of tomatoes, Treated: scale 0 = no red color, 5 = completely ripened to dark red
# Protocol: A cube (60×60×60 cm) was fabricated using a transparent acrylic plastic plate. The upper surface of the cube was equipped with two valves for air-injection and exhaust. Immediately prior to beginning of the red ripening stages, 20 blue tomatoes were harvested and divided into a treatment group and a control group which were then placed in acrylic plastic vessels, respectively. Among two plastic vessels, the treatment group was treated with 1-methylcyclopropene generated by injection of 3 mL diglyme solution containing 0.2 g of 1-methyl-1-(methanesulfonyloxy)-2-(trimethylsilyl)cyclopropane {synthesized in Section (2) of Example 5} into a column packed with 5 g of 15% Bu4NF coated Silica gel {prepared in Section (2) of Example 4} while maintaining the air flow at a flow rate of 2 L/min using a small compressor (see FIG. 3).
# Tomatoes of the treatment group were treated for 1 hour according to the above-mentioned method and were then left for 12 hours while closing the valve. And then, tomatoes of the treatment group and tomatoes of the control group were observed on a progress of turning into red color. Based on the observation results, the ripening progress of tomatoes was evaluated.
# Herein, the degree of ripening of tomatoes was classified on a scale of 0 to 5:
# 0: No red color similar to when completely green tomatoes were harvested 5: Completely ripened to dark red 1 to 4: Red color between the scale of 0 and 5
# Therefore, the higher value represents the redder tomato color.
smiles,measurement,setting,value
CC1=CC1 [1-methylcyclopropene],inhibitory effects on the ripening process of tomatoes,1-methylcyclopropene generated by the device,significant inhibitory effects
same,"Degree of ripening 0, number of tomatoes, Treated",Day 0,10
same,"Degree of ripening 1, number of tomatoes, Treated",Day 0,0
same,"Degree of ripening 2, number of tomatoes, Treated",Day 0,0
same,"Degree of ripening 3, number of tomatoes, Treated",Day 0,0
same,"Degree of ripening 4, number of tomatoes, Treated",Day 0,0
same,"Degree of ripening 5, number of tomatoes, Treated",Day 0,0
same,"Degree of ripening 0, number of tomatoes, Treated",Day 1,10
same,"Degree of ripening 1, number of tomatoes, Treated",Day 1,0
same,"Degree of ripening 2, number of tomatoes, Treated",Day 1,0
same,"Degree of ripening 3, number of tomatoes, Treated",Day 1,0
same,"Degree of ripening 4, number of tomatoes, Treated",Day 1,0
same,"Degree of ripening 5, number of tomatoes, Treated",Day 1,0
same,"Degree of ripening 0, number of tomatoes, Treated",Day 2,10
same,"Degree of ripening 1, number of tomatoes, Treated",Day 2,0
same,"Degree of ripening 2, number of tomatoes, Treated",Day 2,0
same,"Degree of ripening 3, number of tomatoes, Treated",Day 2,0
same,"Degree of ripening 4, number of tomatoes, Treated",Day 2,0
same,"Degree of ripening 5, number of tomatoes, Treated",Day 2,0
same,"Degree of ripening 0, number of tomatoes, Treated",Day 3,9
same,"Degree of ripening 1, number of tomatoes, Treated",Day 3,1
same,"Degree of ripening 2, number of tomatoes, Treated",Day 3,0
same,"Degree of ripening 3, number of tomatoes, Treated",Day 3,0
same,"Degree of ripening 4, number of tomatoes, Treated",Day 3,0
same,"Degree of ripening 5, number of tomatoes, Treated",Day 3,0
same,"Degree of ripening 0, number of tomatoes, Treated",Day 4,8
same,"Degree of ripening 1, number of tomatoes, Treated",Day 4,1
same,"Degree of ripening 2, number of tomatoes, Treated",Day 4,1
same,"Degree of ripening 3, number of tomatoes, Treated",Day 4,0
same,"Degree of ripening 4, number of tomatoes, Treated",Day 4,0
same,"Degree of ripening 5, number of tomatoes, Treated",Day 4,0
same,"Degree of ripening 0, number of tomatoes, Treated",Day 5,8
same,"Degree of ripening 1, number of tomatoes, Treated",Day 5,1
same,"Degree of ripening 2, number of tomatoes, Treated",Day 5,0
same,"Degree of ripening 3, number of tomatoes, Treated",Day 5,1
same,"Degree of ripening 4, number of tomatoes, Treated",Day 5,0
same,"Degree of ripening 5, number of tomatoes, Treated",Day 5,0
same,"Degree of ripening 0, number of tomatoes, Treated",Day 6,6
same,"Degree of ripening 1, number of tomatoes, Treated",Day 6,2
same,"Degree of ripening 2, number of tomatoes, Treated",Day 6,1
same,"Degree of ripening 3, number of tomatoes, Treated",Day 6,0
same,"Degree of ripening 4, number of tomatoes, Treated",Day 6,1
same,"Degree of ripening 5, number of tomatoes, Treated",Day 6,0
same,"Degree of ripening 0, number of tomatoes, Treated",Day 7,6
same,"Degree of ripening 1, number of tomatoes, Treated",Day 7,2
same,"Degree of ripening 2, number of tomatoes, Treated",Day 7,1
same,"Degree of ripening 3, number of tomatoes, Treated",Day 7,0
same,"Degree of ripening 4, number of tomatoes, Treated",Day 7,0
same,"Degree of ripening 5, number of tomatoes, Treated",Day 7,1
same,"Degree of ripening 0, number of tomatoes, Treated",Day 8,5
same,"Degree of ripening 1, number of tomatoes, Treated",Day 8,2
same,"Degree of ripening 2, number of tomatoes, Treated",Day 8,1
same,"Degree of ripening 3, number of tomatoes, Treated",Day 8,1
same,"Degree of ripening 4, number of tomatoes, Treated",Day 8,0
same,"Degree of ripening 5, number of tomatoes, Treated",Day 8,1
same,"Degree of ripening 0, number of tomatoes, Treated",Day 9,2
same,"Degree of ripening 1, number of tomatoes, Treated",Day 9,3
same,"Degree of ripening 2, number of tomatoes, Treated",Day 9,2
same,"Degree of ripening 3, number of tomatoes, Treated",Day 9,1
same,"Degree of ripening 4, number of tomatoes, Treated",Day 9,1
same,"Degree of ripening 5, number of tomatoes, Treated",Day 9,1
same,"Degree of ripening 0, number of tomatoes, Treated",Day 10,1
same,"Degree of ripening 1, number of tomatoes, Treated",Day 10,1
same,"Degree of ripening 2, number of tomatoes, Treated",Day 10,3
same,"Degree of ripening 3, number of tomatoes, Treated",Day 10,2
same,"Degree of ripening 4, number of tomatoes, Treated",Day 10,1
same,"Degree of ripening 5, number of tomatoes, Treated",Day 10,2
same,full ripening of tomatoes of the treatment group,even after 10 days,most of them did not exhibit full ripening
same,time after which tomatoes of the treatment group began the ripening process,"treatment group, control group began to ripen after 1 day",about 3 days
